US20050009908A1, “Aqueous dispersion comprising stable nonoparticles of a water-insoluble active and an excipient like middle chain triglycerides (mct)” (priority 2001, published 2005)
Values after ≈ are worked out from the molar mass of the structure shown. Read-outs that look alike come from different tables or passages of the source.

Assay: Solubility of crystalline substance in the inhibitor (HPLC of saturated solution)
Type: physicochemical
Excerpt: The mole fraction solubility of the crystalline substantially water-insoluble substance in the inhibitor (x^S1) is simply the number of moles of substance per mole of inhibitor present in a saturated solution of the substance in the inhibitor. As will be realized the equation above is derived for a two component system of a substance and an inhibitor. In those systems where the inhibitor contains more than one compound (for example in the case of a medium chain triglyceride comprising a mixture of triglycerides such as Miglyol 812N, or where a mixture of inhibitors is used) it is sufficient to calculate x^S1 in terms of the “apparent molarity” of the mixture of inhibitors. The apparent molarity of such a mixture is calculated for a mixture of n inhibitor components to be: [formula] • wherein: a, b . . . n are the weight fraction of each component in the inhibitor mixture (for example for component a this is %w/w component a/100); and • Mwa . . . Mwn is the molecular weight of each component a . . . n in the mixture. • x^S1 is then calculated as: [formula]
The mole-fraction solubility of the felodipine/Miglyol 812N (x^sl in Equation I) was determined by magnetically stirring an excess of crystalline felodipine (approx 2-5 times that required for a saturated solution) in Miglyol 812N (5-25 ml) at 350 rpm (protected from light and sealed under a nitrogen atmosphere) for 2 days at room temperature. The resulting mixture was filtered to remove solids (0.2 μm filter) and then analyzed using BPLC to determine the quantity of felodipine dissolved in the Miglyol 812N. […] Miglyol 812N is a mixture of approximately 60% C8-triglyceride (Mw 471) and 40% C10-triglyceride (Mw 555) and has a density of approximately 0.945 g/cm^3. Thus, the apparent molarity of Miglyol 812N is 945/(0.6*471+0.4*555)=1.9].

[1] = oil or lipid, thermodynamic from solid

SMILES: CCOC(=O)C1=C(C)NC(C)=C(C(=O)OC)C1c1cccc(Cl)c1Cl (centres unmarked) [felodipine]
- solubility at 2 days (Miglyol 812N (medium chain triglyceride mixture), oil or lipid, thermodynamic from solid, room temperature, 2 days stirring, read-out: solubility in Miglyol 812N): 69 mM (≈ 26.5 mg/mL)

SMILES: CCc1cccc(C)c1CNc1cc(C(N)=O)cn2c(C)c(C)nc12 [8-[(2-ethyl-6-methylbenzyl)amino]-2,3-dimethylimidazo[1,2-a]pyridine-6-carboxamide]
- mole fraction solubility in Miglyol 812N: 0.00116
- mole fraction solubility in Miglyol 812N/1-decanol mixture: 0.0103
- solubility [1]: 37 mM (≈ 12.4 mg/mL)
- solubility at 2 days [1]: 2.2 mM (≈ 0.74 mg/mL)
